Source: ChEMBL document CHEMBL1201862, “PubChem BioAssay data set” (2004)
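Tested at 5 concentrations; 48 h exposure; 96-well plates; endpoints linearly interpolated, else capped at highest concentration. GI50 = concentration required for 50% inhibition of growth.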 Active and inactive are the calls of the source. Cut-off read from the data, not from the text of the source: active = GI50 up to about 1.1 µM and inactive = higher.

What was measured:
Test in all cases: DTP human tumour cell line panel, 48 h
HCT-15 = system: HCT-15
RXF 393 = system: RXF 393
SK-MEL-28 = system: SK-MEL-28
786-0 = system: 786-0
SF-295 = system: SF-295
NCI/ADR-RES = system: NCI/ADR-RES
ACHN = system: ACHN
A549 = system: A549
LOX IMVI = system: LOX IMVI
OVCAR-5 = system: OVCAR-5
NCI-H522 = system: NCI-H522
MDA-N = system: MDA-N
SN12C = system: SN12C
RPMI-8226 = system: RPMI-8226
Malme-3M = system: Malme-3M
K562 = system: K562
SNB-75 = system: SNB-75
NCI-H226 = system: NCI-H226
HCT-116 = system: HCT-116
SW-620 = system: SW-620
OVCAR-4 = system: OVCAR-4
DU-145 = system: DU-145
NCI-H460 = system: NCI-H460
UACC-62 = system: UACC-62
CCRF-CEM = system: CCRF-CEM
SK-MEL-2 = system: SK-MEL-2
MOLT-4 = system: MOLT-4
EKVX = system: EKVX
UACC-257 = system: UACC-257
KM12 = system: KM12
TK-10 = system: TK-10
HOP-92 = system: HOP-92
U-251 = system: U-251
IGROV-1 = system: IGROV-1
HT-29 = system: HT-29
M14 = system: M14
SR = system: SR
UO-31 = system: UO-31
SF-539 = system: SF-539
HCC 2998 = system: HCC 2998
CAKI-1 = system: CAKI-1
OVCAR-8 = system: OVCAR-8
HL-60 = system: HL-60
OVCAR-3 = system: OVCAR-3
MDA-MB-231 = system: MDA-MB-231
PC-3 = system: PC-3
SF-268 = system: SF-268
MDA-MB-435 = system: MDA-MB-435
COLO 205 = system: COLO 205
SNB-19 = system: SNB-19
SK-MEL-5 = system: SK-MEL-5
Hs-578T = system: Hs-578T
A498 = system: A498
MCF7 = system: MCF7
NCI-H23 = system: NCI-H23
HOP-62 = system: HOP-62
T47D = system: T47D
SK-OV-3 = system: SK-OV-3

CN1C/C(=C\c2ccc(Cl)cc2)C(=O)/C(=C/c2ccc(Cl)cc2)C1
GI50 (HCT-15): 0.731 µM | GI50 (RXF 393): 0.834 µM (active) | GI50 (SK-MEL-28): 3.78 µM (inactive) | GI50 (786-0): 0.354 µM (active) | GI50 (SF-295): 0.667 µM (active) | GI50 (NCI/ADR-RES): 1.37 µM (inactive) | GI50 (ACHN): 3.15 µM (inactive) | GI50 (A549): 2.2 µM (inactive) | GI50 (LOX IMVI): 0.237 µM (active) | GI50 (OVCAR-5): 3.34 µM (inactive) | GI50 (NCI-H522): 1.97 µM (inactive) | GI50 (MDA-N): 0.861 µM (active) | GI50 (SN12C): 0.771 µM (active) | GI50 (RPMI-8226): 0.193 µM (active) | GI50 (Malme-3M): 14.3 µM (inactive) | GI50 (K562): 0.33 µM (active) | GI50 (SNB-75): 0.635 µM (active) | GI50 (NCI-H226): 4.45 µM (inactive) | GI50 (HCT-116): 0.208 µM (active) | GI50 (SW-620): 0.386 µM (active) | GI50 (OVCAR-4): 1.11 µM (active) | GI50 (DU-145): 2.54 µM (inactive) | GI50 (NCI-H460): 1.17 µM (inactive) | GI50 (UACC-62): 2.22 µM (inactive) | GI50 (CCRF-CEM): 0.323 µM (active) | GI50 (SK-MEL-2): > 88.9 µM (inactive) | GI50 (MOLT-4): 0.326 µM (active) | GI50 (EKVX): 15.6 µM (inactive) | GI50 (UACC-257): 0.443 µM (active) | GI50 (KM12): 0.774 µM (active) | GI50 (TK-10): 8.75 µM (inactive) | GI50 (HOP-92): > 26.9 µM (inactive) | GI50 (U-251): 0.454 µM (active) | GI50 (IGROV-1): 1.4 µM (inactive) | GI50 (HT-29): 0.294 µM (active) | GI50 (M14): 1.73 µM (inactive) | GI50 (SR): 0.323 µM (active) | GI50 (UO-31): 1.77 µM (inactive) | GI50 (SF-539): 0.512 µM (active) | GI50 (HCC 2998): 2.33 µM (inactive) | GI50 (CAKI-1): 1.3 µM (inactive) | GI50 (OVCAR-8): 0.232 µM (active) | GI50 (HL-60): 0.676 µM (active) | GI50 (OVCAR-3): 1.63 µM (inactive) | GI50 (MDA-MB-231): 1.12 µM (active) | GI50 (PC-3): 1.77 µM (inactive) | GI50 (SF-268): 1.63 µM (inactive) | GI50 (MDA-MB-435): 1.72 µM (inactive) | GI50 (COLO 205): 0.979 µM (active) | GI50 (SNB-19): 1.25 µM (inactive) | GI50 (SK-MEL-5): 2.69 µM (inactive) | GI50 (Hs-578T): 2.65 µM (inactive) | GI50 (A498): 1.55 µM (inactive) | GI50 (MCF7): 0.453 µM (active) | GI50 (NCI-H23): 2.44 µM (inactive) | GI50 (HOP-62): 2.68 µM (inactive) | GI50 (T47D): 4.48 µM (inactive)

CC(C(=O)NCCNC(=O)CCCC(=O)N(C)O)C(=O)NCCNC(=O)CCCC(=O)N(C)O
GI50 (SK-OV-3): > 100 µM (inactive) | GI50 (HCT-15): > 100 µM | GI50 (RXF 393): > 100 µM (inactive) | GI50 (SK-MEL-28): 20.1 µM (inactive) | GI50 (SF-295): > 100 µM (inactive) | GI50 (NCI/ADR-RES): > 100 µM (inactive) | GI50 (ACHN): > 100 µM (inactive) | GI50 (A549): > 100 µM (inactive) | GI50 (LOX IMVI): > 100 µM (inactive) | GI50 (OVCAR-5): > 100 µM (inactive) | GI50 (NCI-H522): > 100 µM (inactive) | GI50 (MDA-N): > 100 µM (inactive) | GI50 (RPMI-8226): > 100 µM (inactive) | GI50 (Malme-3M): > 100 µM (inactive) | GI50 (K562): > 100 µM (inactive) | GI50 (SNB-75): > 100 µM (inactive) | GI50 (NCI-H226): > 100 µM (inactive) | GI50 (SW-620): > 100 µM (inactive) | GI50 (OVCAR-4): > 100 µM (inactive) | GI50 (DU-145): > 100 µM (inactive) | GI50 (NCI-H460): > 100 µM (inactive) | GI50 (UACC-62): > 100 µM (inactive) | GI50 (CCRF-CEM): > 100 µM (inactive) | GI50 (SK-MEL-2): > 100 µM (inactive) | GI50 (MOLT-4): > 100 µM (inactive) | GI50 (EKVX): > 100 µM (inactive) | GI50 (UACC-257): > 100 µM (inactive) | GI50 (KM12): > 100 µM (inactive) | GI50 (TK-10): > 100 µM (inactive) | GI50 (HOP-92): > 100 µM (inactive) | GI50 (U-251): > 100 µM (inactive) | GI50 (IGROV-1): > 100 µM (inactive) | GI50 (HT-29): > 100 µM (inactive) | GI50 (M14): > 100 µM (inactive) | GI50 (SR): > 100 µM (inactive) | GI50 (UO-31): > 100 µM (inactive) | GI50 (HCC 2998): > 100 µM (inactive) | GI50 (CAKI-1): > 100 µM (inactive) | GI50 (OVCAR-8): > 100 µM (inactive) | GI50 (HL-60): > 100 µM (inactive) | GI50 (OVCAR-3): > 100 µM (inactive) | GI50 (MDA-MB-231): > 100 µM (inactive) | GI50 (PC-3): > 100 µM (inactive) | GI50 (SF-268): > 100 µM (inactive) | GI50 (MDA-MB-435): > 100 µM (inactive) | GI50 (COLO 205): > 100 µM (inactive) | GI50 (SNB-19): > 100 µM (inactive) | GI50 (SK-MEL-5): > 100 µM (inactive) | GI50 (Hs-578T): > 100 µM (inactive) | GI50 (A498): > 100 µM (inactive) | GI50 (MCF7): > 100 µM (inactive) | GI50 (NCI-H23): > 100 µM (inactive) | GI50 (HOP-62): > 100 µM (inactive) | GI50 (T47D): > 100 µM (inactive)
